Where a name gives a salt, the structure may show the parent alone.
What was measured:
[1] = antiarthritic activity relative to vinblastine, parenteral; assay type: in vivo; conditions: parenteral administration
[2] = pigeons or chickens, intertarsal joint; cited from earlier work
[3] = mice; cited from earlier work
[4] = adjuvant-induced arthritis assay in rats; assay type: in vivo, female Wistar-Lewis rats; conditions: for Percent Inhibition Swelling, Injected Paw / Percent Inhibition Swelling, Uninjected Paw: day 16; for Percent Inhibition of Swelling, Injected Paw / Percent Inhibition of Swelling, Uninjected Paw: Table 2; for Inhibition of Swelling, Mean Difference, Injected Paw / Inhibition of Swelling, Mean Difference, Uninjected Paw: Table 3; for inhibiting induced arthritis, drug alone: at the dose levels used in combination
[5] = weight loss / deaths as a measure of toxicity in the adjuvant arthritis experiments
Protocol: Similar experiments were carried out with vinblastine-fenoprofen combinations and a vinblastine-indomethacin combination, again using adjuvant arthritis as a model. In this first determination, vinblastine was, as before, given on the 10th day, but fenoprofen, as the calcium salt, was given both from day 0 through day 15 and from day 10 through day 15. Controls utilizing each drug alone were employed as well as a saline control. […] In the vinblastine-indomethacin experiment, vinblastine was given on day 11 and indomethacin daily from days 11 to day 16.

twine granuloma assay = assay type: in vivo; conditions: female rats
Text: Vinblastine is also active in other assays designed to detect anti-arthritic activity as, for example, the twine granuloma assay in female rats.

[6] = dogs pretreated with vinblastine; cited from earlier work
[7] = intravenous; pleural cavity; cited from earlier work
[8] = Table 1 Section A, 3 mg/kg, given on 10th day
[9] = Table 1 Section A, 6 mg/kg, given on 10th day
[10] = Table 1 Section A, 9 mg/kg, given on 10th day
[11] = Table 1 Section A, 9 mg/kg, given on 10th day, * decrease from previous value
[12] = Table 1 Section A, 12 mg/kg, given on 10th day, * decrease from previous value
[13] = Table 1 Section B, vinblastine sulfate 6 mg/kg, 10th day
[14] = vinblastine sulfate 3 mg/kg, day 10, p = 1
[15] = Table 2, vinblastine sulfate 3 mg/kg day 10
[16] = Table 1 Section B, fenoprofen 5 mg/kg, days 10-15

CC[C@]1(O)C[C@H]2CN(CCc3c([nH]c4ccccc34)[C@@](C(=O)OC)(c3cc4c(cc3OC)N(C=O)[C@H]3[C@@](O)(C(=O)OC)[C@H](OC(C)=O)[C@]5(CC)C=CCN6CC[C@]43[C@@H]65)C2)C1 [vincristine]
antiarthritic activity relative to VLB [1]: about 10 times more active | inhibition of the arthritic response [2]: no inhibition of the arthritic response | depression of paw swelling [3]: significant depression of paw swelling

CC[C@]1(O)C[C@@H]2CN(CCc3c([nH]c4ccccc34)[C@@](C(=O)OC)(c3cc4c(cc3OC)N(C)[C@H]3[C@@](O)(C(=O)OC)[C@H](OC(C)=O)[C@]5(CC)C=CCN6CC[C@]43[C@@H]65)C2)C1 [Vinblastine sulfate]
Average Increase in Swelling, Injected Paw, Day 0-10 [4, 8]: 0.554 | Average Increase in Swelling, Injected Paw, Day 10-16 [4, 8]: 0.722 | Average Increase in Swelling, Uninjected Paw, Day 0-10 [4, 8]: 0.024 | Average Increase in Swelling, Uninjected Paw, Day 10-16 [4, 8]: 0.574 | Percent Inhibition Swelling, Injected Paw ([4]; Table 1 Section A, 3 mg/kg, given on 10th day, p = 0.097): 38.55% | Percent Inhibition Swelling, Uninjected Paw ([4]; Table 1 Section A, 3 mg/kg, given on 10th day, p = 0.987): 0% | Average Increase in Swelling, Injected Paw, Day 0-10 [4, 9]: 0.498 | Average Increase in Swelling, Injected Paw, Day 10-16 [4, 9]: 0.188 | Average Increase in Swelling, Uninjected Paw, Day 0-10 [4, 9]: 0.038 | Percent Inhibition Swelling, Injected Paw ([4]; Table 1 Section A, 6 mg/kg, given on 10th day, p = 0.001): 84.00% | Percent Inhibition Swelling, Uninjected Paw ([4]; Table 1 Section A, 6 mg/kg, given on 10th day, p = 0.077): 74.39% | Average Increase in Swelling, Injected Paw, Day 0-10 [4, 10]: 0.492 | Average Increase in Swelling, Uninjected Paw, Day 0-10 [4, 10]: 0.230 | Average Increase in Swelling, Injected Paw, Day 10-16 [4, 11]: -0.096 | Average Increase in Swelling, Uninjected Paw, Day 10-16 [4, 11]: -0.232 | Percent Inhibition Swelling, Injected Paw ([4]; Table 1 Section A, 9 mg/kg, given on 10th day, p = 0.000): 100.0% | Percent Inhibition Swelling, Uninjected Paw ([4]; Table 1 Section A, 9 mg/kg, given on 10th day, p = 0.004): 100.00% | Average Increase in Swelling, Injected Paw, Day 0-10 ([4]; Table 1 Section A, 12 mg/kg, given on 10th day): 0.698 | Average Increase in Swelling, Injected Paw, Day 10-16 [4, 12]: -0.108 | Average Increase in Swelling, Uninjected Paw, Day 0-10 [4, 12]: -0.102 | Average Increase in Swelling, Uninjected Paw, Day 10-16 [4, 12]: -0.048 | Percent Inhibition Swelling, Injected Paw ([4]; Table 1 Section A, 12 mg/kg, given on 10th day, p = 0.000): 100.00% | Percent Inhibition Swelling, Uninjected Paw ([4]; Table 1 Section A, 12 mg/kg, given on 10th day, p = 0.027): 100.00% | Average Increase in Swelling, Injected Paw, Day 0-10 [4, 13]: 0.498 | Average Increase in Swelling, Injected Paw, Day 10-16 [4, 13]: 0.188 | Average Increase in Swelling, Uninjected Paw, Day 0-10 [4, 13]: 0.030 | Percent Inhibition Swelling, Injected Paw ([4]; Table 1 Section B, vinblastine sulfate 6 mg/kg, 10th day, p = 0.001): 84.00% | Percent Inhibition Swelling, Uninjected Paw ([4]; Table 1 Section B, vinblastine sulfate 6 mg/kg, 10th day, p = 0.077): 74.39% | Percent Inhibition of Swelling, Injected Paw ([4]; vinblastine sulfate 3 mg/kg day 10, p = 0.724): 8.22% | Percent Inhibition of Swelling, Uninjected Paw ([4]; vinblastine sulfate 3 mg/kg day 10, p = 0.764): 12.0% | Inhibition of Swelling, Mean Difference, Injected Paw [4, 14]: 1.00 | Inhibition of Swelling, Mean Difference, Uninjected Paw [4, 14]: 0.41 | inhibiting induced arthritis, drug alone [4]: neither drug alone is effective | Wt. Loss, Day 0-16 [5, 15]: -22.3 grams | Wt. Loss, Day 10-16 [5, 15]: -22.6 grams | Wt. Loss, Day 10-17 ([5]; Table 3, vinblastine sulfate 3 mg/kg, day 10): 28.9 grams

CC(C(=O)O)c1cccc(Oc2ccccc2)c1 (racemic) [Fenoprofen (Ca salt), dl-α-methyl-3-phenoxybenzeneacetic acid]
Average Increase in Swelling, Injected Paw, Day 0-10 [4, 16]: 0.502 | Average Increase in Swelling, Injected Paw, Day 10-16 [4, 16]: 0.692 | Average Increase in Swelling, Uninjected Paw, Day 0-10 [4, 16]: 0.188 | Average Increase in Swelling, Uninjected Paw, Day 10-16 [4, 16]: 0.274 | Percent Inhibition Swelling, Injected Paw ([4]; Table 1 Section B, fenoprofen 5 mg/kg, days 10-15, p = 0.074): 41.11% | Percent Inhibition Swelling, Uninjected Paw ([4]; Table 1 Section B, fenoprofen 5 mg/kg, days 10-15, p = 0.282): 51.93% | Percent Inhibition of Swelling, Injected Paw ([4]; fenoprofen Ca salt 2.5 mg/kg days 0-15, p = 0.196): 34.9% | Percent Inhibition of Swelling, Uninjected Paw ([4]; fenoprofen Ca salt 2.5 mg/kg days 0-15, p = 0.645): 17.4% | Percent Inhibition of Swelling, Uninjected Paw ([4]; fenoprofen Ca salt 5 mg/kg days 10-15, p = 0.385): 27.2% | Percent Inhibition of Swelling, Injected Paw ([4]; fenoprofen Ca salt 5 mg/kg days 10-15, p = 0.58): 40.3% | inhibiting induced arthritis, drug alone [4]: neither drug alone is effective | death ([5]; Table 2 footnote, 2.5 mg/kg days 0-15, at day 16): one death

CC[C@]1(O)C[C@@H]2CN(CCc3c([nH]c4ccccc34)[C@@](C(=O)OC)(c3cc4c(cc3OC)N(C)[C@H]3[C@@](O)(C(=O)OC)[C@H](OC(C)=O)[C@]5(CC)C=CCN6CC[C@]43[C@@H]65)C2)C1 [Vinblastine]
activity in twine granuloma assay (twine granuloma assay): active | activity in the adjuvant arthritis assay ([4]; summary statement): active in the adjuvant arthritis assay | inflammatory response [6]: almost completely abolished | leukocyte depletion [6]: profound leukocyte depletion | significant phagocyte accumulation [6]: prevented | inhibition of the arthritic response [2]: no inhibition of the arthritic response | effect on inflammation [7]: may have a suppressive effect | depression of paw swelling [3]: significant depression of paw swelling

COc1ccc2c(c1)c(CC(=O)O)c(C)n2C(=O)c1ccc(Cl)cc1 [Indomethacin]
Inhibition of Swelling, Mean Difference, Injected Paw ([4]; indomethacin 0.25 mg/kg, p = 0.11): 0.59 | Inhibition of Swelling, Mean Difference, Uninjected Paw ([4]; indomethacin 0.25 mg/kg, p = 1): 0.56 | inhibiting induced arthritis, drug alone [4]: neither drug alone is effective
